Measurements taken from patent US11083198B2, “4H-pyrrolopyridine compound or salt thereof, agricultural and horticultural insecticide comprising the compound or the salt, and method for using the insecticide” (Nihon Nohyaku Co., Ltd., priority 2016, dated 2021).

Columns and labels:
Plutella xylostella = assay: Insecticidal Test on Plutella xylostella; format: in vivo; details: 144 h, Chinese cabbage seedlings with laid eggs dipped for about 30 seconds, 25° C., 6 days after the dip treatment, read-out: insecticidal efficacy (corrected mortality rate)
Excerpt: Insecticidal Test on Plutella xylostella
Adults of Plutella xylostella were released onto Chinese cabbage seedlings and allowed to lay eggs thereon. At 2 days after the release of the adults, the Chinese cabbage seedlings with laid eggs were dipped for about 30 seconds in agrochemical dispersions diluted to 500 ppm, each of which contained a different condensed heterocyclic compound represented by the general formula (1) of the present invention as an active ingredient. After air-dried, the seedlings were kept in a thermostatic chamber at 25° C. At 6 days after the dip treatment, the number of hatched larvae per plot was counted, the mortality rate was calculated according to the formula shown below, and the insecticidal efficacy was evaluated according to the criteria of Test Example 2. This test was conducted in triplicate using 10 adults of Plutella xylostella per plot. Corrected mortality rate(%)=100×(Number of hatched larvae in a non-treatment plot−Number of hatched larvae in a treatment plot)/Number of hatched larvae in a non-treatment plot [Math. 3]

Laodelphax striatellus = assay: Insecticidal Test on Laodelphax striatellus; format: in vivo; details: 192 h, rice plant seedlings dipped for 30 seconds, 3rd-instar larvae, 8 days after the inoculation, read-out: insecticidal efficacy (corrected mortality rate)
Excerpt: Insecticidal Test on Laodelphax striatellus
The condensed heterocyclic compounds represented by the general formula (1) of the present invention or salts thereof were separately dispersed in water and diluted to 500 ppm. Rice plant seedlings (variety: Nihonbare) were dipped in the agrochemical dispersions for 30 seconds. After air-dried, each seedling was put into a separate glass test tube and inoculated with ten 3rd-instar larvae of Laodelphax striatellus, and then the glass test tubes were capped with cotton plugs. At 8 days after the inoculation, the numbers of surviving larvae and dead larvae were counted, the corrected mortality rate was calculated according to the formula shown below, and the insecticidal efficacy was evaluated according to the criteria shown below. Corrected mortality rate(%)=100×(Survival rate in a non-treatment plot−Survival rate in a treatment plot)/Survival rate in a non-treatment plot [Math. 2] Corrected Mortality Rate A: the corrected mortality rate is 100%. B: the corrected mortality rate is 90 to 99%. C: the corrected mortality rate is 80 to 89%. D: the corrected mortality rate is 50 to 79%.

Row | SMILES | mortality at 500 ppm (Plutella xylostella) | mortality at 500 ppm (Laodelphax striatellus)
1 | CCn1cc(C(F)(F)F)cc2nc(-c3nc4cc(Br)ccc4cc3S(=O)(=O)CC)c(F)c1-2 [Compound 2-76, 2-(7-bromo-3-ethylsulfonyl-quinolin-2-yl)-3-fluoro-4-ethyl-6-trifluoromethyl-4H-pyrrolo[3,2-b]pyridine] | 100% | 100%
2 | CCn1cc(C(F)(F)F)cc2nc(-c3ncc(-c4cccc(C(F)(F)F)c4)cc3S(=O)(=O)CC)c(F)c1-2 [Compound 1-16, 2-(5-(3-trifluoromethylphenyl)-3-ethylsulfonyl-pyridin-2-yl)-3-fluoro-4-ethyl-6-trifluoromethyl-4H-pyrrolo[3,2-b]pyridine] | 100% | 100%
3 | CCn1cc(C(F)(F)F)cc2nc(-c3nc4cc(Br)ccc4cc3S(=O)(=O)CC)c(Cl)c1-2 [Compound 2-52, 2-(7-bromo-3-ethylsulfonyl-quinolin-2-yl)-3-chloro-4-ethyl-6-trifluoromethyl-4H-pyrrolo[3,2-b]pyridine] | 100% | 100%
4 | CCS(=O)(=O)c1c(-c2nc3cc(C(F)(F)F)cn(C)c-3c2F)nc2cc(C(F)(F)F)ccn12 [Compound 3-14, 2-(3-ethylsulfonyl-7-(trifluoromethyl)imidazo[1,2-a]pyridin-2-yl)-3-fluoro-4-methyl-6-(trifluoromethyl)-4H-pyrrolo[3,2-b]pyridine] | 100% | 100%
5 | CCS(=O)(=O)c1cc(-c2cccc(C(F)(F)F)c2)cnc1-c1nc2cc(C(F)(F)F)cn(C)c-2c1Cl [Compound 1-13, 2-(5-(3-trifluoromethylphenyl)-3-ethylsulfonyl-pyridin-2-yl)-3-chloro-4-methyl-6-trifluoromethyl-4H-pyrrolo[3,2-b]pyridine] | 100% | 100%
